# Measured values taken from patent publication US20250276955A1, “CORONAVIRUS MAIN PROTEASE INHIBITORS AND METHODS USING SAME” (Baylor College of Medicine, priority 2021, published 2025).
# Read-outs that look alike come from different tables or passages of the source.
# How the values were obtained:
# [1] = Metabolic stability in mouse liver microsomes; format: in vitro ADME; details: 0.5 mg protein/mL, 2.0 μM compound, 1.0 mM NADPH
# Description: (§1) The samples were collected at specific time-points 0, 30, and 60 min in duplicate. The reactions were terminated by adding an equivalent volume of ice-cold methanol and vortexed. […] Three μL of the supernatant was analyzed by UHPLC-Q Exactive Orbitrap MS (Thermo Fisher Scientific, USA) equipped with 50 mm×4.6 mm column (XDB C-18, Agilent Technologies, USA). The column temperature was maintained at 40° C. The flow rate was at 0.3 mL/min with a 30% mobile phase (acetonitrile containing 0.1% formic acid). Q Exactive MS was operated in positive mode with electrospray ionization. Ultra-pure nitrogen was applied as the sheath (45 arbitrary unit), auxiliary (10 arbitrary unit), sweep (1.0 arbitrary unit) and the collision gas. […] MS data were acquired from 80 to 1,200 Da in profile mode.
# [2] = Metabolic stability in human liver microsomes; format: in vitro ADME; details: 0.5 mg protein/mL, 2.0 μM compound, 1.0 mM NADPH
# Description: as §1
# [3] = target: SARS-CoV-2 main protease (M^pro) (Severe acute respiratory syndrome coronavirus 2, UniProt P0DTD1); test: Protein thermal shift stability assay (SYPRO Orange); format: binding; details: 50 μM compound; […]; 50 µM
# [4] = target: T1, HOVPro-Gi.1 (Norovirus, UniProt Q83883); test: Thermal shift, HOVPro-Gi.1; format: binding; details: 50 µM
# T1 construct: HOVPro-Gi.1
# T1 sequence (Q83883 1101-1281): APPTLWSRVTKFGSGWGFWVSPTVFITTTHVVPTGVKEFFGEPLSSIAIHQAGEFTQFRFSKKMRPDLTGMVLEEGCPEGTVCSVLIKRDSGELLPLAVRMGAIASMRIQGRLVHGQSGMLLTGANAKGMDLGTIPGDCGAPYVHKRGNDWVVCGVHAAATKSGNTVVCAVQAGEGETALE
# [5] = system: HOVPro-Gii.4; test: Thermal shift, HOVPro-Gii.4; format: binding; details: 50 µM
# [6] = target: T2, human thrombin (Homo sapiens, UniProt P00734); test: Thrombin fluorescence assay; format: biochemical; details: fluorescence assay
# T2 construct: purchased Sigma-Aldrich MAK243
# [7] = Apparent solubility in PBS buffer; details: for solubility: PBS buffer with 2% DMSO, aqueous buffer, kinetic from dmso stock
# [8] = target: SARS-COV-2 M^pro-His6 (Severe acute respiratory syndrome coronavirus 2, UniProt P0DTD1); test: biochemical; format: biochemical
# [9] = target: SARS-COV-2 M^pro (authentic N- and C-termini) (Severe acute respiratory syndrome coronavirus 2, UniProt P0DTD1); test: biochemical; format: biochemical; details: for M^pro Ki: 25 nM enzyme, 15 μM fluorescent peptide, Morrison equation, Inactive = less than 50% inhibition at 25 μM compound; for Ki,app: Table 5
# [10] = target: T3, Human Cathepsin B (Homo sapiens, UniProt P07858); test: Cathepsin B assay; format: biochemical
# T3 construct: purchased BPS Bioscience 79590
# Description: A kit from BPS Bioscience (#79590) was used with adjustments to the manufacturer's protocol as follows: The activated enzyme was diluted 250-fold just before use, and the reaction was run at RT in black 96 half-area plates in a total reaction volume of 50 uL containing 0.01% Tween-20. Instead of measuring endpoints at 60 min the increase in fluorescence (Ex 360 nm, Em 460 nm) per second (RFU/s) was obtained from linear progress curves over 10 min. Fractional activities were calculated from reactions with no inhibitors. E-64 was used as a positive control.
# [11] = system: SARS-COV-2 (USA_WA1/2020 isolate) in VERO E6 cells; test: Real-Time Cell Analysis (RTCA) assay of SARS-COV-2 replication; format: cell-based; details: VERO E6 cells, 75 h
# [12] = 25 nM enzyme, 15 μM fluorescent peptide, Morrison equation, Inactive = less than 50% inhibition at 25 μM compound
# [13] = Table 3, column a (footnote not given), read-out: Kiapp (nM)^a
# [14] = Ki, app towards SARS-CoV-2 M^pro, athentic termini, authentic termini
# [15] = Table 3, column b (footnote not given), read-out: Kiapp (nM)^b
# [16] = Kiapp (nM)^b, Table 3, column b (footnote not given)
# [17] = Table 3, column a (footnote not given)
# [18] = Table 3, column b (footnote not given)
smiles,measurement,setting,value
"Cc1nnc2n1-c1ccc(Cl)cc1C(c1ccccc1)=NC2 [Alprazolam, reference compound]",MLM t1/2 (half-life),[1],296
same,HLM t1/2 (half-life),[2],832
CCCC(NC(=O)c1cccc2nc(-c3cncc4ccccc34)n([C@H]3C[C@H](C(=O)NC)C3)c12)c1ccc(C(F)(F)F)cc1 (some centres unmarked) [CDD-1732],ΔTm of Mpro at 50 μM compound conc.,[3],0.61 °C
same,ΔTm of HOVPro-Gi.1 at 50 μM compound conc.,[4],−0.82 °C
same,ΔTm of HOVPro-Gii.4 at 50 μM compound conc.,[5],−1.24 °C
same,Thrombin inhibition,[6],None
same,Measured apparent solubility in PBS buffer (2% DMSO),"[7]; PBS buffer, 2% DMSO",26.9 µM
COc1cc(-c2cccc3[nH]ncc23)cc(CO)c1OCC(=O)N(C)C [CDD-1776],M^pro-His Ki,[8]; [12],Inactive
same,M^pro inhibition (in words),[9],completely abolished the activity
same,M^pro Ki,[9],Inactive
same,"Ki,app",[9],Inactive
CCC[C@H](NC(=O)c1cccc2nc(-c3cncc4ccccc34)n([C@H]3CC[C@H](C(=O)NC)C3)c12)c1ccc(C(F)(F)F)cc1 [CDD-1790],Ki,[8]; [13],621 ± 46 nM
same,Ki,[9]; [14],663 nM
same,Ki,[9]; [15],663 ± 66 nM
same,solubility,[7],52.1 µM
"COc1cc(-c2cccc3[nH]ncc23)ccc1OCC(=O)N(C)C [CDD-1793, 2-(4-(1H-indazol-4-yl)-2-methoxyphenoxy)-N,N-dimethylacetamide]",M^pro-His Ki,[8]; [12],Inactive
same,M^pro inhibition (in words),[9],completely abolished the activity
same,M^pro Ki,[9],Inactive
same,"Ki,app",[9],Inactive
CCC[C@H](NC(=O)c1cccc2nc(-c3cncc4ccccc34)n([C@H]3C[C@H](C(=O)NC)C3)c12)c1cccc(C(F)(F)F)c1 [CDD-1795],Ki,[8]; [13],29.4 ± 4.3 nM
same,Ki,[9]; [14],35.2 nM
same,Ki,[9]; [16],35.2 ± 4.9 nM
same,"Human Cathepsin B, Fractional Remaining Activity",[10],1.07
same,solubility,[7],50.4 µM
CCC[C@H](NC(=O)c1cccc2nc(-c3cncc4ccccc34)n(C(C)C)c12)c1ccc(C(F)(F)F)cc1 [CDD-1804],Kiapp (nM)^a,[8]; [17],Inactive
same,Kiapp (nM)^b,[9]; [18],Inactive
CCC[C@H](NC(=O)c1cccc2nc(-c3cncc4ccccc34)n(C3CCC3)c12)c1ccc(C(F)(F)F)cc1 [CDD-1806],Ki,[8],165 ± 12.9 nM
same,Ki,[9]; [14],137 nM
same,Ki,[9]; [16],137 ± 11.6 nM
same,"Human Cathepsin B, Fractional Remaining Activity",[10],0.94
same,solubility,[7],0.1 µM
CCC[C@H](NC(=O)c1cccc2nc(-c3cncc4ccccc34)n(C3CCNCC3)c12)c1ccc(C(F)(F)F)cc1 [CDD-1818],Ki,[8]; [13],1470 ± 152 nM
same,Ki,[9]; [15],1710 ± 128 nM
CNC(=O)[C@H]1C[C@H](n2c(-c3cncc4ccccc34)nc3cccc(C(=O)NC(C)c4ccc(C(F)(F)F)cc4)c32)C1 (some centres unmarked) [CDD-1829],Ki,[8]; [13],45.7 ± 3.7 nM
same,Ki,[9]; [15],47.9 ± 4.7 nM
CCC[C@H](NC(=O)c1cccc2nc(-c3cncc4ccccc34)n(CCCC(=O)NC)c12)c1ccc(C(F)(F)F)cc1 [CDD-1830],Ki,[8]; [13],5.6 ± 0.5 nM
same,Ki,[9]; [15],6.5 ± 1 nM
CCC[C@H](NC(=O)c1cccc2nc(-c3cccnc3)n([C@H]3C[C@H](C(=O)NC)C3)c12)c1ccc(C(F)(F)F)cc1 [CDD-1831],Kiapp (nM)^a,[8],Inactive
same,Kiapp (nM)^b,[9],Inactive
CNC(=O)[C@H]1C[C@H](n2c(-c3cncc4ccccc34)nc3cccc(C(=O)N[C@@H](C)c4ccccc4)c32)C1 [CDD-1841],Ki,[8]; [13],571 ± 72.7 nM
same,Ki,[9]; [15],565 ± 55.3 nM
CNC(=O)[C@H]1C[C@H](n2c(-c3cncc4ccccc34)nc3cccc(C(=O)NC(C)C)c32)C1 [CDD-1842],Kiapp (nM)^a,[8],Inactive
same,Kiapp (nM)^b,[9],Inactive
CCC[C@H](NC(=O)c1cccc2nc(-c3cncc4ccccc34)n([C@H]3C[C@H](C(=O)NC)C3)c12)c1ccccc1 [CDD-1843],Kiapp (nM)^a,[8]; [17],Inactive
same,Kiapp (nM)^b,[9]; [18],Inactive
"COc1cc(-c2cccc3c2cnn3C)cc(C=O)c1OCC(=O)N(C)C [CDD-1847, 2-(2-formyl-6-methoxy-4-(1-methyl-1H-indazol-4-yl)phenoxy)-N,N-dimethylacetamide]",M^pro-His Ki,[8]; [12],Inactive
same,M^pro inhibition (in words),[9],completely lost activity
same,M^pro Ki,[9],Inactive
same,prevention of SARS-COV-2 induced cell death (in words),[11],unable to prevent cell death
COc1cc(-c2cccc3[nH]ncc23)cc(C(C)=O)c1OCC(=O)N(C)C [CDD-1883],M^pro-His Ki,[8]; [12],Inactive
same,M^pro Ki,[9],Inactive
CNC(=O)CCCn1c(-c2ccc3cnccc3c2)nc2cccc(C(=O)N[C@@H](C)c3ccc4ccccc4c3)c21 [CDD-1884],Kiapp (nM)^a,[8]; [17],Inactive
same,Kiapp (nM)^b,[9]; [18],Inactive
CNC(=O)CCCn1c(-c2cccc3ccccc23)nc2cccc(C(=O)N[C@@H](C)c3ccc4ccccc4c3)c21 [CDD-1885],Kiapp (nM)^a,[8]; [17],Inactive
same,Kiapp (nM)^b,[9]; [18],Inactive
COc1cc(-c2cccc3[nH]ncc23)cc(C(=O)CO)c1OCC(=O)N(C)C [CDD-1886],Ki,"[8]; 25 nM enzyme, 15 μM fluorescent peptide, Morrison equation, Inactive = less than 50% inhibition at 25 μM compound, read-out: M^pro-His Ki",15700 ± 1200 nM
same,decrease of M^pro inhibition relative to CDD-1713,[9],greater than 100 fold
same,Ki,[9]; read-out: M^pro Ki,21200 ± 1500 nM
CNC(=O)CCCn1c(-c2ccc3cccnc3n2)nc2cccc(C(=O)N[C@@H](C)c3ccc4ccccc4c3)c21 [CDD-1905],Kiapp (nM)^a,[8]; [17],Inactive
same,Kiapp (nM)^b,[9]; [18],Inactive
CNC(=O)CCCn1c(-c2ccnc3ccccc23)nc2cccc(C(=O)N[C@@H](C)c3ccc4ccccc4c3)c21 [CDD-1906],Kiapp (nM)^a,[8]; [17],Inactive
same,Kiapp (nM)^b,[9]; [18],Inactive
CNC(=O)CCCn1c(-c2cnccc2C)nc2cccc(C(=O)N[C@@H](C)c3ccc4ccccc4c3)c21 [CDD-1924],Ki,[9]; [15],426 ± 46.4 nM
CNC(=O)CCCn1c(-c2cncc3ccccc23)nc2cccc(C(=O)NCc3ccc4ccccc4c3)c21 [CDD-1925],Ki,[8]; [13],51.3 ± 7.5 nM
same,Ki,[9]; [15],42.5 nM
CNC(=O)CCCn1c(-c2ccc(N)nc2)nc2cccc(C(=O)N[C@@H](C)c3ccc4ccccc4c3)c21 [CDD-1926],Kiapp (nM)^a,[8]; [17],Inactive
same,Kiapp (nM)^b,[9]; [18],Inactive
CCC[C@H](NC(=O)c1cccc2nc(-c3cncc4ccccc34)n(CCCC(=O)NC)c12)c1ccc(C)cc1 [CDD-1934],Ki,[9]; [15],27.4 ± 2.4 nM
CCOC(=O)/C=C/c1cc(-c2cccc3[nH]ncc23)cc(OC)c1OCC(=O)N(C)C [CDD-1971],M^pro-His Ki,[8]; [12],Inactive
same,M^pro Ki,[9],Inactive
C[C@H](NC(=O)c1cccc2nc(-c3cncc4ccccc34)n(CCCC(=O)O)c12)c1ccc2ccccc2c1 [CDD-1972],Ki,[9]; [15],87.9 ± 8.4 nM
COC(=O)c1cc(-c2cccc3[nH]ncc23)cc(OC)c1OCC(=O)N(C)C [CDD-1982],M^pro-His Ki,[8]; [12],Inactive
same,M^pro Ki,[9],Inactive
O=C1CCOc2ccc(-c3cccc4[nH]ncc34)cc21 [CDD-2037],M^pro-His Ki,[8]; [12],Inactive
same,M^pro Ki,[9],Inactive
CN(C)C(=O)COc1ccc(-c2cccc3[nH]ncc23)cc1C#N [CDD-2038],M^pro-His Ki,[8]; [12],Inactive
same,M^pro Ki,[9],Inactive
